Data on 27 compounds can be found in ChEMBL document CHEMBL1140262 (J Med Chem, 2005).

What is called Ki is a measure of affinity in units of concentration, obtained from inhibition or displacement. Low readings indicate tighter binding, high ones weaker binding.

Bounds are passed on as bounds.

The target in assay [1] is Neuronal acetylcholine receptor subunit alpha-7 (Rattus norvegicus, UniProt Q05941). It is filed as cell membranes, Membrane.
Description: Inhibition of 3 nM [3H]-MLA binding to Nicotinic acetylcholine receptor alpha7 of rat brain membranes
Assay [2] has as its target Synaptic vesicular amine transporter (Rattus norvegicus, UniProt Q01827). The assay is classed as cell membranes, Membrane.
Description: Inhibition of 5 nM [3H]DTBZ binding to Vesicular Monoamine Transporter (VAMT2) of rat vesicle membranes
Assay [3] addresses Neuronal acetylcholine receptor; alpha4/beta2 (Rattus norvegicus, UniProt P09483+P12390). In words: Inhibition of 3 nM [3H]NIC binding to Nicotinic acetylcholine receptor alpha4-beta2 of rat striatal membranes. The assay is classed as cell membranes, Membrane.
Assay [4] is filed under the species Rattus norvegicus. The experiment in a line: Ratio of Ki for Nicotinic acetylcholine receptor alpha-7 and Vesicular monoamine transporter ([…]).
For assay [5], the species on record is Rattus norvegicus. In words: Ratio of Ki for Nicotinic acetylcholine receptor alpha4-beta2 and Vesicular Monoamine Transporter ([…]).

Chain of Neuronal acetylcholine receptor subunit alpha-7 (Q05941 whole entry): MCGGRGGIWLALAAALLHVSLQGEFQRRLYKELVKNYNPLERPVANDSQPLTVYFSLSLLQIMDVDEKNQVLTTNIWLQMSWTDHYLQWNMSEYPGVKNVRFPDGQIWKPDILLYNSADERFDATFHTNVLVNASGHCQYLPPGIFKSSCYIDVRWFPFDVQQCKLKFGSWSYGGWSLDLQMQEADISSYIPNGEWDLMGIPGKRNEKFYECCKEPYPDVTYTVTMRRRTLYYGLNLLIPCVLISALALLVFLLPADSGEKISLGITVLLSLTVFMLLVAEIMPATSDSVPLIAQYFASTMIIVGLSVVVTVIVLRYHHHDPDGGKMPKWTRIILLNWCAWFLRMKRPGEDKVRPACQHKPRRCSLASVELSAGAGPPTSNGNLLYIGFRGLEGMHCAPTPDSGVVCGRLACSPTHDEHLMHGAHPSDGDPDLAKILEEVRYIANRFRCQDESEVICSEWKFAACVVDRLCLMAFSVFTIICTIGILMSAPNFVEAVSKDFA
Chain of Synaptic vesicular amine transporter (Q01827 whole entry): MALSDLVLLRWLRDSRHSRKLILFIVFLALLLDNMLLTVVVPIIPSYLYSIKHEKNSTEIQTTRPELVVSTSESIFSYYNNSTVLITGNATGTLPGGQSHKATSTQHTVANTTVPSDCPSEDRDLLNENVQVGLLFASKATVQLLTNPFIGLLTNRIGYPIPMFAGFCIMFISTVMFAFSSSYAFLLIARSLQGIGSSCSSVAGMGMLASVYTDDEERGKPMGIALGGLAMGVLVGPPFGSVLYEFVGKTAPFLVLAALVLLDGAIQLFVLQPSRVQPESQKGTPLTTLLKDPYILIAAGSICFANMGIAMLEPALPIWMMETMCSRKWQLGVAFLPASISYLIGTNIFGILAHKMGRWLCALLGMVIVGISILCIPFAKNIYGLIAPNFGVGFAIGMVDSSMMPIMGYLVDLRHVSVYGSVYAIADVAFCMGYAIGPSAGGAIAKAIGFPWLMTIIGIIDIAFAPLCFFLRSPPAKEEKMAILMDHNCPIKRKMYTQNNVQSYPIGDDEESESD
Chain of Neuronal acetylcholine receptor; alpha4/beta2 (P09483 whole entry): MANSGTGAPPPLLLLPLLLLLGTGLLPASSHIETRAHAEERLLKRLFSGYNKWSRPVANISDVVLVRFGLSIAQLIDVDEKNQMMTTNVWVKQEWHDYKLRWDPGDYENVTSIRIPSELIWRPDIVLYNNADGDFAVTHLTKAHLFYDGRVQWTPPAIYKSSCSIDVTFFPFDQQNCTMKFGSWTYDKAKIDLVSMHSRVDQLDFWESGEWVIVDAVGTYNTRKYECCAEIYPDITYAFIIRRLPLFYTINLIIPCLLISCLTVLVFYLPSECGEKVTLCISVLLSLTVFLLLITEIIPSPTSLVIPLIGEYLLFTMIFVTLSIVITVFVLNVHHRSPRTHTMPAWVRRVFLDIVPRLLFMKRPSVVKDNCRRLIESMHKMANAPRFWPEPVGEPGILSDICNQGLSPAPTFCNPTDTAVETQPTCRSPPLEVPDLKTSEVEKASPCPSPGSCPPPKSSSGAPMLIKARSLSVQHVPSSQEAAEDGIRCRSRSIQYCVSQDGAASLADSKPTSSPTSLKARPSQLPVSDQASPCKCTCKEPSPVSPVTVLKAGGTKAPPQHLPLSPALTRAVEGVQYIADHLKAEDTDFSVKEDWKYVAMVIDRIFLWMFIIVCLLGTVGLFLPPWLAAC
Chain of Neuronal acetylcholine receptor; alpha4/beta2 (P12390 whole entry): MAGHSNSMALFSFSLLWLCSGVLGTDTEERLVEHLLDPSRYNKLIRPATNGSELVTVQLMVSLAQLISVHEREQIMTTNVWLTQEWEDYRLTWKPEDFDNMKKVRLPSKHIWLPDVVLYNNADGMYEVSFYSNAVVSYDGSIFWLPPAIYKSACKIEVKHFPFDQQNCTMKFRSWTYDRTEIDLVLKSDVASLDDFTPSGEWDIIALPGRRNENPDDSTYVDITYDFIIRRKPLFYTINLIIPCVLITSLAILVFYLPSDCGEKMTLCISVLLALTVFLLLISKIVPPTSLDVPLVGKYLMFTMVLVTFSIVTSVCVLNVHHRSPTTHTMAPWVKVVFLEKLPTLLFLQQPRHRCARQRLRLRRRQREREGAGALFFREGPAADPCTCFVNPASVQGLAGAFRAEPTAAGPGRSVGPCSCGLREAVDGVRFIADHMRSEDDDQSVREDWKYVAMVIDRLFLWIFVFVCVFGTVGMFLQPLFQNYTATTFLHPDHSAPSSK

Take `CN1[C@@H](CCc2ccccc2)CCC[C@@H]1CCc1ccccc1`: the affinity in assay [1], expressed as Ki, was 40 µM.
Consider `CN(CCCc1ccccc1)CCCc1ccccc1`, for which the Ki in assay [2] is 3.07 µM; in assay [1] it was over 100 µM; in assay [3], over 100 µM. The Ki ratio in the assay listed under Rattus norvegicus [4] and in the assay filed under Rattus norvegicus [5] was over 32.3 each time.
As for `c1ccc(CC[C@H]2CCC[C@@H](CCc3ccccc3)N2)cc1`, the Ki in assay [2] is 2.31 µM; in assay [1] it was over 100 µM; in assay [3], over 100 µM. Besides, the Ki ratio in the assay filed under Rattus norvegicus [4] and in the assay filed under Rattus norvegicus [5] was over 43.3 each time.
Consider `CN1[C@@H](CCc2ccccc2)C=CC[C@H]1/C=C/c1ccccc1`, for which the Ki in assay [2] was 3.84 µM; in assay [1], over 100 µM; in assay [3], over 100 µM. Also, the Ki ratio in the assay listed under Rattus norvegicus [4] and in the assay filed under Rattus norvegicus [5] was over 26 throughout.
As for `C[N+]1(C)[C@H](/C=C/c2ccccc2)CCC[C@@H]1/C=C/c1ccccc1`, the inhibitory constant (Ki) in assay [2] is over 100 µM; in assay [1], 33.8 µM; in assay [3], over 100 µM. Moreover, the Ki ratio in the assay filed under Rattus norvegicus [4] was under 0.3.
In the case of `CN1[C@@H](CCc2ccc3ccccc3c2)CCC[C@H]1CCc1ccc2ccccc2c1`, the results for the inhibitory constant (Ki) in assay [2], in assay [1] and in assay [3] were 2.03 µM, over 100 µM and over 100 µM, respectively. Also, the Ki ratio in the assay listed under Rattus norvegicus [4] and in the assay listed under Rattus norvegicus [5] was over 49.3 each time.
For `C[N+]1(C)[C@H](CCc2ccccc2)CCC[C@H]1CCc1ccccc1`, the inhibition constant (Ki) in assay [2] came out at 24.6 µM; in assay [1], 2.39 µM; in assay [3], 16.2 µM. The Ki ratio in the assay listed under Rattus norvegicus [4] is 0.1; in the assay filed under Rattus norvegicus [5], 0.7.
As to `CN(C/C=C/c1ccccc1)C/C=C/c1ccccc1`, the results for the Ki in assay [2], in assay [1] and in assay [3] were 2.37 µM, over 100 µM and over 100 µM, respectively. Besides, the Ki ratio in the assay listed under Rattus norvegicus [4] and in the assay listed under Rattus norvegicus [5] was over 42.2 throughout.
With `CN[C@@H](CCCCCCc1ccccc1)CCc1ccccc1`, the Ki in assay [2] is 5.21 µM; in assay [1], over 100 µM; in assay [3], over 100 µM. In addition, the Ki ratio in the assay filed under Rattus norvegicus [4] and in the assay listed under Rattus norvegicus [5] was over 19.2 each time.
On to `C(=C\[C@@H]1CCC[C@H](/C=C/c2ccccc2)N1)/c1ccccc1`, for which the Ki in assay [1] and in assay [3] was over 100 µM each time. Further, the Ki ratio in the assay listed under Rattus norvegicus [4] and in the assay filed under Rattus norvegicus [5] was over 48.1 in each case.
As for `CN1[C@H](CCc2ccccc2)CCC[C@H]1/C=C/c1ccccc1`, the Ki in assay [3] was over 100 µM.
Regarding `CN1[C@@H](CCc2ccccc2)CCC[C@H]1CCc1ccccc1` [LOBELANE], the Ki in assay [1] worked out at 26 µM.
On to `C[N+]1(C)[C@H](/C=C/c2ccccc2)CCC[C@H]1/C=C/c1ccccc1`, for which the Ki in assay [2] was 9.24 µM; in assay [1], 15.1 µM; in assay [3], over 100 µM. Besides, the Ki ratio was 1.6 in the assay filed under Rattus norvegicus [4] and over 10.8 in the assay filed under Rattus norvegicus [5].
Take `C[N+]1(C)[C@@H](CCc2ccccc2)CCC[C@H]1CCc1ccccc1`: the figures for the inhibition constant (Ki) in assay [2], in assay [1] and in assay [3] were 16.5 µM, 9.63 µM and 24.3 µM, respectively. The Ki ratio in the assay listed under Rattus norvegicus [4] stood at 0.6; in the assay listed under Rattus norvegicus [5], 1.5.
With `CN1[C@H](/C=C/c2ccccc2)CCC[C@@H]1/C=C/c1ccccc1`, the Ki in assay [2] is 9.88 µM; in assay [1] it was over 100 µM; in assay [3], 11.6 µM. In addition, the Ki ratio in the assay filed under Rattus norvegicus [4] is over 10.1; in the assay listed under Rattus norvegicus [5], 1.2.
With `CN1[C@@H](CCc2ccccc2)CCC[C@H]1/C=C/c1ccccc1`, in assay [3], the Ki was over 100 µM.
For `CN[C@H](CCCCCCc1ccccc1)CCc1ccccc1`, the inhibitory constant (Ki) in assay [2] was 3.96 µM; in assay [1], over 100 µM; in assay [3] it was over 100 µM. The Ki ratio in the assay filed under Rattus norvegicus [4] and in the assay filed under Rattus norvegicus [5] was over 25.2 each time.
The compound `CN1[C@H](CCc2ccccc2)CC=C[C@@H]1CCc1ccccc1` showed an inhibitory constant (Ki) in assay [3] of over 100 µM.
Consider `CN1[C@@H](/C=C/c2ccccc2)CCC[C@@H]1/C=C/c1ccccc1`, for which the inhibition constant (Ki) in assay [2] was 7.09 µM; in assay [1] it was over 100 µM; in assay [3], over 100 µM. In addition, the Ki ratio in the assay listed under Rattus norvegicus [4] and in the assay listed under Rattus norvegicus [5] was over 14.1 in each case.
As to `CN1[C@@H](CCc2cccc3ccccc23)CCC[C@H]1CCc1cccc2ccccc12`, the Ki is 0.63 µM in assay [2], over 100 µM in assay [1] and over 100 µM in assay [3]. Moreover, the Ki ratio in the assay listed under Rattus norvegicus [4] and in the assay filed under Rattus norvegicus [5] was over 159 each time.
In the case of `C(=C\[C@@H]1CCC[C@@H](/C=C/c2ccccc2)N1)/c1ccccc1.C(=C\[C@H]1CCC[C@H](/C=C/c2ccccc2)N1)/c1ccccc1`, the inhibitory constant (Ki) in assay [2] is 5.19 µM; in assay [1], over 100 µM; in assay [3], over 100 µM. Also, the Ki ratio in the assay listed under Rattus norvegicus [4] and in the assay filed under Rattus norvegicus [5] was over 19.3 throughout.
In the case of `c1ccc2c(CC[C@H]3CCC[C@@H](CCc4cccc5ccccc45)N3)cccc2c1`, the results for the inhibition constant (Ki) in assay [2], in assay [1] and in assay [3] were 4.68 µM, over 100 µM and over 100 µM, respectively. The Ki ratio in the assay listed under Rattus norvegicus [4] and in the assay filed under Rattus norvegicus [5] was over 21.4 each time.
For `CN1[C@@H](CCc2ccccc2)CCC[C@@H]1/C=C/c1ccccc1`, the Ki in assay [3] is over 100 µM.
Take `CN1[C@H](/C=C/c2ccccc2)CCC[C@H]1/C=C/c1ccccc1`: the inhibition constant Ki in assay [2] is 19.4 µM; in assay [1], over 100 µM; in assay [3], over 100 µM. The Ki ratio in the assay filed under Rattus norvegicus [4] and in the assay filed under Rattus norvegicus [5] was over 5.2 each time.
Turning to `c1ccc2cc(CC[C@H]3CCC[C@@H](CCc4ccc5ccccc5c4)N3)ccc2c1`, the inhibition constant Ki in assay [2], in assay [1] and in assay [3] was over 100 µM each time.
As for `CN1[C@H](CCc2ccccc2)CCC[C@@H]1/C=C/c1ccccc1`, in assay [3], the Ki was over 100 µM.
In assay [1], `CN1[C@H](CCc2ccccc2)CCC[C@H]1CCc1ccccc1` yielded an inhibition constant (Ki) of 25.3 µM.
